The text below walks through data of patent US8273761B2, “Tricyclic compound and medical use thereof” (Takeda Pharmaceutical Company Limited, priority 2006, dated 2012).

The target in data set [1] is T1, human melatonin 1 receptors (human MT1 receptors) (Homo sapiens, UniProt P48039).
T1 construct: expressed in transfected cells
Kind of data set: Melatonin receptor binding inhibitory test (MT1). The note with it: 2-[125I] Iodomelatonin 400 pM solution, membrane fraction of CHO-hMelR7 cells, 25° C. for 2.5 hr. The procedure:
Biochim Biophys Acta. Vol. 1219(2), pp. 251-259, 1994) to give plasmid pAKKO-hMelR7 for animal cell expression. CHO/dhfr-cells (ATCC, #CRL-9096) were plated at a concentration of 0.3×10^6 cells/dish in a 6 cm culture dish (Becton Dickinson), and cultured under the conditions of 37° C., 5% CO2 for 48 hr. The cells were transfected with pAKKO-hMelR7 plasmid DNA (5 μg) using […] Transfection Kit (Amersham, #27-9268-01). The transfected cells were cultured in Dulbecco's modified Eagle medium (DMEM) (Sigma, #D6046) containing 10% dialyzed FBS ([…]), 1× Non-Essential Amino Acid (Invitrogen, #11140-050) and 50 μg/mL Gentamycin (Invitrogen, #15750-060), and the cell line that stably expressed the plasmid gene was selected. By a receptor binding assay using 2-[^125I] […] (3) Preparation of Cellular Membrane Fraction of CHO Cell (CHO-hMelR7 and CHO-hMT2) Stably Expressing Human MT1 and MT2 Receptors CHO-hMelR7 and CHO-hMT2 cells were plated using Cellfactory (Nunc, #170009) under the conditions of 1×10^8 cells/2000 mL/flask. The cells were grown to confluent, and recovered by the following method. As the medium for CHO-hMelR7 and CHO-hMT2, MEM α containing 10% FBS and penicillin/streptomycin was used. 300 ng/mL of geneticin was added to the medium for CHO-hMT2. The medium was discarded, cells were washed twice with 200 mL of EDTA/PBS(-), 200 mL of EDTA/PBS(-) was further added, and the cells were stood still at room temperature for 20 min until they were released. The cells were recovered in four 50 mL tubes (Becton Dickinson, #352070), and centrifuged at 1,500 rpm for 10 min at 4° C. using a low speed cooling centrifuge (Hitachi, CF7D2). The supernatant was discarded, the pellets in the four tubes were suspended in 10 mL of PBS(-), and combined in one tube (Becton Dickinson, #352070). The mixture was further centrifuged at 1,500 rpm for 10 min at 4° C., and the obtained pellets were suspended in 20 mL of ice-cooled homogenizing buffer [10 mM NaHCO3, 5 mM EDTA, Protease inhibitor Complete (Roche), pH 7.4]. The cell suspension was homogenized 3 times using a polytron homogenizer at 20,000 rpm for 30 sec. The obtained homogenate was centrifuged (2,000 rpm, 10 min, 4° C.) using a low speed cooling centrifuge. The supernatant was recovered in an ultracentrifugation tube and ultracentrifuged (40,000 rpm, 60 min, 4° C.) using an ultracentrifuge (Beckman, […]). To the obtained pellets was added a suspending buffer [50 mM Tris-HCl, 1 mM EDTA, Protease inhibitor Complete (Roche), pH 7.4], and the pellets were suspended by pipetting. The protein concentration of this suspension was measured, diluted to 2 mg/mL to give cellular membrane fractions of CHO-hMelR7 and CHO-hMT2 cells. […] Protein was quantified using BCA protein assay kit (Pierce) with BSA as the standard. (4) Preparation of Membrane Fraction Suspension Immediately before use, the membrane fractions of CHO-hMelR7 and CHO-hMT2 cells of the above-mentioned (3) were diluted 20-fold with assay buffer (50 mM Tris-HCl, pH 7.7). (5) Preparation of 2-[^125I] […] (6) Binding Reaction The assay buffer (80 μL) of the above-mentioned (4) was added to each well of a 96-well plate (type 3363, Corning). […] (7) Measurement Using a cell harvester (PerkinElmer), the binding reaction mixture in each well of the 96-well plate was transferred to a treated (immersed in 50 mM Tris, pH 7.7 in advance) filter plate (UniFilter GF/C, PerkinElmer) and filtered. After filtration, the plate was washed 4 times with the assay buffer, and dried in a dryer (42° C.) for 2 hr or more. 25 μL of a liquid scintillator (MicroScint O, PerkinElmer) was added to each well of the filter plate after drying, and the luminescence of scintillator was measured by TopCount (PerkinElmer) for 1 min. Specific binding is a value obtained by subtracting nonspecific binding from the total binding.

T1 sequence (P48039 whole entry): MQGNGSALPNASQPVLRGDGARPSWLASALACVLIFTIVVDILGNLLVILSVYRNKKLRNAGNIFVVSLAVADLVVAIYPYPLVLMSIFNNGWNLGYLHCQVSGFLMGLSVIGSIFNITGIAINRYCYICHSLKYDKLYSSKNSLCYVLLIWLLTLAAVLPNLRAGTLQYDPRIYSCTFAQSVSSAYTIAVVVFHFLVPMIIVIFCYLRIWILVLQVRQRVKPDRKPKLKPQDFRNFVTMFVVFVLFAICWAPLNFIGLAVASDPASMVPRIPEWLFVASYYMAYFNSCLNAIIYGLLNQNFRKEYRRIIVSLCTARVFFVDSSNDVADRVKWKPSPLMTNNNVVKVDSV

One may read the melting point as the temperature, or range, at which the solid turns liquid. In general, IC50 refers to the point on the concentration scale where inhibition reaches its midpoint. High values mean weaker potency in that assay, low ones greater potency in that assay. The molecule `CCc1nn2ccc3oc(C)cc3c2c1CCNC(C)=O` [Example 39, N-[2-(2-ethyl-8-methylfuro[3,2-c]pyrazolo[1,5-a]pyridin-1-yl)ethyl]acetamide] displayed a melting point of 128 to 129 °C. In data set [1], this molecule registered an IC50 of no more than 100 nM.
Take `CCCC(=O)NCCC1CCc2cnc3c(c21)CCO3` (stereo not shown) [Example 25, N-[2-(1,6,7,8-tetrahydro-2H-cyclopenta[d]furo[2,3-b]pyridin-8-yl)ethyl]butanamide]: in data set [1], the IC50 was no more than 100 nM.
In the case of `CC(=O)NCCc1cnn2ccc3c(c12)CCO3` [Example 3, N-[2-(8,9-dihydrofuro[3,2-c]pyrazolo[1,5-a]pyridin-1-yl)ethyl]acetamide], the melting point fell in the range of 174 to 175 °C. In data set [1], this molecule gave a half-inhibitory concentration (IC50) of no more than 100 nM.
`CCC(=O)NCCC1CCc2cnc3c(c21)CCO3` (stereo not shown) [Example 22, N-[2-(1,6,7,8-tetrahydro-2H-cyclopenta[d]furo[2,3-b]pyridin-8-yl)ethyl]propanamide] gave an IC50 in data set [1] of no more than 100 nM.
Consider `CCC(=O)NCC(C)c1c(CC)nn2ccc3c(c12)CCO3` (stereo not shown) [Example 38, N-[2-(2-ethyl-8,9-dihydrofuro[3,2-c]pyrazolo[1,5-a]pyridin-1-yl)propyl]propanamide], for which the melting point lay within 173 to 175 °C. For the same molecule, in data set [1], the IC50 is no more than 100 nM.
Molecule `CCCC(=O)NCCc1cnn2ccc3c(c12)CCO3` [Example 5, N-[2-(8,9-dihydrofuro[3,2-c]pyrazolo[1,5-a]pyridin-1-yl)ethyl]butanamide] showed a melting point of 58 to 59 °C. Moreover, the 50% inhibitory concentration (IC50) in data set [1] was no more than 100 nM.
In turn, `CC(=O)NCCC1CCc2cnc3c(c21)CCO3` (single isomer, unassigned) [Example 20, optically active N-[2-(1,6,7,8-tetrahydro-2H-cyclopenta[d]furo[2,3-b]pyridin-8-yl)ethyl]acetamide] came in with a half-maximal inhibitory concentration (IC50) in data set [1] of no more than 100 nM.
Same read-out and setting: with `CC(=O)NCCc1c(-c2ccccc2)cn2ccc3c(c12)CCO3` [Example 17, N-[2-(8-phenyl-1,2-dihydrofuro[2,3-g]indolizin-9-yl)ethyl]acetamide] the figure was no more than 100 nM.
On to `CCC(=O)NCCC1=CCc2cnc3c(c21)CCO3` [Example 29, N-[2-(1,6-dihydro-2H-cyclopenta[d]furo[2,3-b]pyridin-8-yl)ethyl]propanamide], for which the melting point lay within 111 to 112 °C. In addition, the half-maximal inhibitory concentration (IC50) in data set [1] is no more than 100 nM.
Taken in the same sequence, the figures for `CC(=O)NCCC1=C(C(C)C)Cc2cnc3c(c21)CCO3` [Example 30, N-[2-(7-isopropyl-1,6-dihydro-2H-cyclopenta[d]furo[2,3-b]pyridin-8-yl)ethyl]acetamide] were 164 to 166 °C and no more than 100 nM.
The like results for `CC(=O)NCCc1c(-c2ccc(F)cc2)nn2ccc3c(c12)CCO3` [Example 15, N-{2-[2-(4-fluorophenyl)-8,9-dihydrofuro[3,2-c]pyrazolo[1,5-a]pyridin-1-yl]ethyl}acetamide] were, in that order, 160 to 162 °C and no more than 100 nM.
The like results for `CCC(=O)NCCc1cnn2ccc3c(c12)CCO3` [Example 4, N-[2-(8,9-dihydrofuro[3,2-c]pyrazolo[1,5-a]pyridin-1-yl)ethyl]propanamide] were, in that order, 96 to 97 °C and no more than 100 nM.
`CCC(=O)NCCc1c(-c2ccccc2)nn2ccc3occc3c12` [Example 2, N-[2-(2-phenylfuro[3,2-c]pyrazolo[1,5-a]pyridin-1-yl)ethyl]propanamide] returned a melting point of 161 to 163 °C. For the same molecule, in data set [1], the half-maximal inhibitory concentration (IC50) was no more than 100 nM.
Take `CCC(=O)NCCC1=C(C(C)C)Cc2cnc3c(c21)CCO3` [Example 31, N-[2-(7-isopropyl-1,6-dihydro-2H-cyclopenta[d]furo[2,3-b]pyridin-8-yl)ethyl]propanamide]: the melting point is 168 to 170 °C. In addition, the 50% inhibitory concentration (IC50) in data set [1] was no more than 100 nM.
With `CCc1nn2ccc3c(c2c1C(C)CNC(C)=O)CCO3` (stereo not shown) [Example 37, N-[2-(2-ethyl-8,9-dihydrofuro[3,2-c]pyrazolo[1,5-a]pyridin-1-yl)propyl]acetamide], the melting point lay in the range of 151 to 153 °C. The IC50 in data set [1] was no more than 100 nM.
The like results for `CCC(=O)NCCc1c(-c2ccc(F)cc2)nn2ccc3c(c12)CCO3` [Example 16, N-{2-[2-(4-fluorophenyl)-8,9-dihydrofuro[3,2-c]pyrazolo[1,5-a]pyridin-1-yl]ethyl}propanamide] were, in that order, 170 to 171 °C and no more than 100 nM.
The like results for `CCC(=O)NCCc1c(-c2ccccc2)nn2ccc3c(c12)CCO3` [Example 8, N-[2-(2-phenyl-8,9-dihydrofuro[3,2-c]pyrazolo[1,5-a]pyridin-1-yl)ethyl]propanamide] were, in that order, 169 to 170 °C and no more than 100 nM.
For the molecule `CCC(=O)NCCC1CCc2cnc3c(c21)CCO3` (single isomer, unassigned) [Example 23, optically active N-[2-(1,6,7,8-tetrahydro-2H-cyclopenta[d]furo[2,3-b]pyridin-8-yl)ethyl]propanamide], the IC50 in data set [1] is no more than 100 nM.
